Data reported in patent US5391744A (priority 1993, dated 1995).
“Also recorded” adds a separate entry of the source. Like-named read-outs stand apart in the source and are kept apart here.

Legend:
[1] = system: rats trained to discriminate cocaine; assay: animal or person; conditions: Rattus norvegicus, ip, 0.25 h, read-out: ED50 (50% cocaine-lever responding)
[2] = system: dopamine transporter; conditions: in words; literature; cited from earlier work
[3] = system: rats trained to discriminate cocaine
[4] = system: nonhuman primates; conditions: in words; literature; cited from earlier work
[5] = molecular target: T1, dopamine transporter (Rattus norvegicus, UniProt P23977); parameters: from tissue; host or cells: rat striatal membranes; conditions: 0.5 nM [^3 H]-1b; rat striata; F. I. Carroll et al.; cited from earlier work
[6] = molecular target: T1, dopamine transporter; assay: displacement of [^3 H]mazindol binding from rat striatal membranes; conditions: for potency / affinity increase over cocaine, mazindol binding: relative to (-)-cocaine
[7] = molecular target: T2, dopamine transporter (high-affinity uptake of [^3 H]dopamine into striatal nerve endings) (Rattus norvegicus, UniProt P23977); assay: inhibition of high-affinity uptake of [^3 H]dopamine into striatal nerve endings (synaptosomes); assay type: biochemical
T2 construct: striatal nerve endings (synaptosomes); from tissue; host or cells: striatal nerve endings (synaptosomes)

[8] = dose-response test, 0.625 mg/kg, 15 min, mean ± S.E.M.
[9] = dose-response test, 1.25 mg/kg, 15 min, mean ± S.E.M.
[10] = dose-response test, 2.5 mg/kg, 15 min, mean ± S.E.M.
[11] = dose-response test, 5.0 mg/kg, 15 min, mean ± S.E.M.
[12] = dose-response test, 10.0 mg/kg, 15 min, mean ± S.E.M.
[13] = temporal test, 10.0 mg/kg, 5 min, mean ± S.E.M.
[14] = temporal test, 10.0 mg/kg, 15 min, mean ± S.E.M.
[15] = temporal test, 10.0 mg/kg, 60 min, mean ± S.E.M.
[16] = temporal test, 10.0 mg/kg, 120 min, mean ± S.E.M.
[17] = mean ± SE (N), striatal synaptosomes, read-out: IC50 [^3 H] Dopamine Uptake

T1 sequence (P23977 whole entry): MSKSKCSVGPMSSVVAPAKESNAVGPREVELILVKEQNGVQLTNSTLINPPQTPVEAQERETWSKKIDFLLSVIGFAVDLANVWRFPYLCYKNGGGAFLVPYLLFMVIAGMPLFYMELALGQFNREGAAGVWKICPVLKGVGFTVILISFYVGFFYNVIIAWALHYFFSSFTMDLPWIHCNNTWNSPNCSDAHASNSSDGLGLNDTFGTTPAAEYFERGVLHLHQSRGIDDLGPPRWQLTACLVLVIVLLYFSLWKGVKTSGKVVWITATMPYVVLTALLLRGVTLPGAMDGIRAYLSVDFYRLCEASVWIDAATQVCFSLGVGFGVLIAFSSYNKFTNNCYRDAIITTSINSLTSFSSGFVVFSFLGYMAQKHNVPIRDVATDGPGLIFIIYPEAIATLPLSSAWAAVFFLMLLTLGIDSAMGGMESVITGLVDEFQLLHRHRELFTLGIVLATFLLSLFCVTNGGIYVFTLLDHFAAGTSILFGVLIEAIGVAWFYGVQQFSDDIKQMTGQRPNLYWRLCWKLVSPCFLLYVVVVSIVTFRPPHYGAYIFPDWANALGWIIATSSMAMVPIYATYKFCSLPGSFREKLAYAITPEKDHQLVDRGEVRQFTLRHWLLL
T2 sequence (P23977 whole entry): as above

COC(=O)[C@H]1[C@@H](OC(=O)c2ccccc2)C[C@@H]2CC[C@H]1N2C [(-)-cocaine, methyl 3-(benzoyloxy) -8-methyl-8-azabicyclo [3.2.1]octane-2 carboxylate, reference compound]
ED50 [1]: 1.7 mg/kg | binding to / inhibition of the dopamine transporter [2]: binds to the dopamine transporter and inhibits dopamine transport | duration of complete cocaine-like response ([3]; cocaine 10 mg/kg): approximately 60 min | injection period eliciting complete cocaine-like response ([3]; cocaine 10 mg/kg): 5 min | response type at 120 min ([3]; cocaine, 120 min injection period, in words): elicited primarily saline-appropriate responding | n/N (animals completing 20 responses / tested) ([3]; dose-response test, 0.625 mg/kg, 15 min): 7/7 | % Drug responses [3, 8]: 6 ± 2% | Rate (responses/min) [3, 8]: 27.3 ± 5 responses/min | n/N (animals completing 20 responses / tested) ([3]; dose-response test, 1.25 mg/kg, 15 min): 7/7 | % Drug responses [3, 9]: 44 ± 18% | Rate (responses/min) [3, 9]: 21.3 ± 5 responses/min | n/N (animals completing 20 responses / tested) ([3]; dose-response test, 2.5 mg/kg, 15 min): 7/7 | % Drug responses [3, 10]: 61 ± 16% | Rate (responses/min) [3, 10]: 31.6 ± 16 responses/min | n/N (animals completing 20 responses / tested) ([3]; dose-response test, 5.0 mg/kg, 15 min): 7/7 | % Drug responses [3, 11]: 98 ± 2% | Rate (responses/min) [3, 11]: 89.0 ± 16 responses/min | n/N (animals completing 20 responses / tested) ([3]; dose-response test, 10.0 mg/kg, 15 min): 7/7 | % Drug responses [3, 12]: 99 ± 1% | Rate (responses/min) [3, 12]: 75.8 ± 13 responses/min | response rates ([3]; in words, across test doses): fairly stable across all test doses | substitution for the cocaine cue / drug-appropriate responding ([3]; in words, dose-dependence over the tested doses): increased in a dose-dependent manner | n/N (animals completing 20 responses / tested) ([3]; temporal test, 10.0 mg/kg, 5 min): 7/7 | % Drug responses [3, 13]: 85 ± 13% | Rate (responses/min) [3, 13]: 28.2 ± 8 responses/min | n/N (animals completing 20 responses / tested) ([3]; temporal test, 10.0 mg/kg, 15 min): 7/7 | % Drug responses [3, 14]: 99 ± 1% | Rate (responses/min) [3, 14]: 75.8 ± 13 responses/min | n/N (animals completing 20 responses / tested) ([3]; temporal test, 10.0 mg/kg, 30 min): 7/7 | % Drug responses ([3]; temporal test, 10.0 mg/kg, 30 min, mean): 100% | Rate (responses/min) ([3]; temporal test, 10.0 mg/kg, 30 min, mean ± S.E.M.): 60.6 ± 11 responses/min | n/N (animals completing 20 responses / tested) ([3]; temporal test, 10.0 mg/kg, 60 min): 7/7 | % Drug responses [3, 15]: 81 ± 14% | Rate (responses/min) [3, 15]: 23.0 ± 4 responses/min | n/N (animals completing 20 responses / tested) ([3]; temporal test, 10.0 mg/kg, 120 min): 7/7 | % Drug responses [3, 16]: 31 ± 18% | Rate (responses/min) [3, 16]: 27.7 ± 7 responses/min

COC(=O)[C@H]1[C@@H](c2ccccc2)C[C@@H]2CC[C@H]1N2C [Compound 1a, 3β-phenyltropane-2β-carboxylic acid methyl ester]
binding to / inhibition of the dopamine transporter [2]: most potent compounds in binding and behavioral studies | potency in behavioral studies [4]: most potent compounds in binding and behavioral studies

COC(=O)[C@H]1[C@@H](c2ccc(F)cc2)C[C@@H]2CC[C@H]1N2C [Compound 1b, 3β-(p-fluorophenyl)tropane-2β-carboxylic acid methyl ether]
binding to / inhibition of the dopamine transporter [2]: most potent compounds in binding and behavioral studies | potency in behavioral studies [4]: most potent compounds in binding and behavioral studies

COC(=O)[C@H]1[C@@H](c2ccc(I)cc2)C[C@@H]2CC[C@H]1N2C [Compound 1c]
potency relative to (-)-cocaine, inhibition of [^3 H]-1b binding [5]: 78 times

COC(=O)[C@H]1[C@@H](c2ccc(Cl)cc2)C[C@@H]2CC[C@H]1N2C [Compound 1d, 3β-(p-chlorophenyl)tropane-2β-carboxylic acid methyl ester, reference compound]
IC50 [6]: 1.7 ± 0.1 nM | potency relative to (-)-cocaine, inhibition of [^3 H]-1b binding [5]: 85 times | IC50 [7]: 3.2 ± 0.1 nM

C=C[C@H]1[C@@H](OC(=O)c2ccccc2)C[C@@H]2CC[C@H]1N2C [Compound 2a, 3β-(Benzoyloxy)-2β-vinyltropane]
activity relative to parent structure (cocaine) ([6]; Table I data, in words): not substantially less active than the parent structure | IC50 [7, 17]: 1120 ± 390 nM | fold less potent than cocaine, dopamine uptake ([7]; relative to (-)-cocaine): two-fold less potent

CN1[C@H]2CC[C@@H]1[C@@H](/C=C/Cl)[C@@H](OC(=O)c1ccccc1)C2 [Compound 2b, 3β-(Benzoyloxy)-2β-[(E)-2-chlorovinyl]tropane]
potency / affinity increase over cocaine, mazindol binding [6]: approximate twofold higher affinity; also recorded: about two-fold more potent than cocaine | IC50 [7, 17]: 368 ± 190 nM

CN1[C@H]2CC[C@@H]1[C@@H](/C=C/Cl)[C@@H](c1ccc(Cl)cc1)C2 [Compound 2d, 3β-(4-Chlorophenyl)-2β-[(E)-2-chlorovinyl]tropane]
IC50 [6]: 0.72 ± 0.06 nM | potency of 2d relative to 2c ([6]; relative to 2c, binding affinity): doubling the potency | IC50 [7]: 1.26 ± 0.3 nM

CCOC(=O)/C=C/[C@H]1[C@@H](OC(=O)c2ccccc2)C[C@@H]2CC[C@H]1N2C [Compound 2e, 3β-(Benzoyloxy)-2β-[(E)-2-(ethoxycarbonyl)vinyl]tropane]
IC50 [6]: 50 ± 10 nM | potency / affinity increase over cocaine, mazindol binding [6]: 4-5 fold | IC50 [7, 17]: 310 ± 10 nM | potency increase over cocaine, dopamine uptake ([7]; relative to (-)-cocaine): 4-5 times

CCOP(=O)(/C=C/[C@H]1[C@@H](OC(=O)c2ccccc2)C[C@@H]2CC[C@H]1N2C)OCC [Compound 2f, 3β-Benzoyloxy-2β-[(E)-2-(diethoxyphosphono)vinyl]tropane]
IC50 [6]: 4850 ± 470 nM | IC50 [7]: 5500 ± 70 nM | inhibition of dopamine uptake ([7]; in words): found to inhibit dopamine uptake | fold less potent than cocaine, dopamine uptake ([7]; relative to (-)-cocaine): about 10 fold

OC1(c2ccc(Cl)cc2)c2ccccc2C2=NCCN21 (stereo not drawn) [mazindol]
binding to / inhibition of the dopamine transporter [2]: potent inhibitors of binding at the transport site for dopamine | potency in maintaining self-administration [4]: potent in maintaining self-administration

COC(=O)C(c1ccccc1)C1CCCCN1 (stereo not drawn) [methylphendiate]
binding to / inhibition of the dopamine transporter [2]: potent inhibitors of binding at the transport site for dopamine | potency in maintaining self-administration [4]: potent in maintaining self-administration

CN1Cc2c(N)cccc2C(c2ccccc2)C1 (stereo not drawn) [nomifensine]
potency in maintaining self-administration [4]: potent in maintaining self-administration
